Results: article PMC5453931, “Cathelicidin-trypsin inhibitor loop conjugate represents a promising antibiotic candidate with protease stability” (Scientific Reports, 2017)
≈ marks a conversion by molar mass, not a printed value. Read-outs that look alike come from different tables or passages of the source. Where a SMILES comes first, the peptide text is derived from it.

How the values were obtained:
Format in all cases: cell-based
E. coli = conditions: 18 h
Procedure: (§1) A two-fold broth microdilution method described in our previous paper was used to determine the antimicrobial activities of parental and hybrid peptides. More than 30 strains including Gram-negative bacteria, Gram-positive bacteria and fungi were used in the current assay, in which the standard strains were stored in our lab and the clinical strains were collected from local hospitals. Briefly, bacteria were incubated in Mueller-Hinton broth (MH broth) at 37 °C to exponential phase and diluted to 10^6 CFU/mL. A serial dilution of peptide sample were prepared in 96-well microtiter plates (50 μL) and mixed with equal volume of microbial inoculums (50 μL). The plate was slowly shaken in the microbial incubator, and measured at A595 after incubation at 37 °C for 18 h. The minimal concentrations at which no microbial growth occurred were recorded as MIC (minimal inhibitory concentration) values. The traditional antibiotic ampicillin was used as positive control. The results are shown in an average of the MICs obtained from three independent experiments.

S. dysenteria = conditions: two-fold broth microdilution, MH broth, 37 °C, 18 h, A595; mean of three independent experiments in duplicate
Procedure: as §1

S. aureus = conditions: 18 h
Procedure: as §1

B. subtilis = conditions: 18 h
Procedure: as §1

P. aeruginosa = conditions: 18 h
Procedure: as §1

P. mirabilis = conditions: 18 h
Procedure: as §1

C. albican = conditions: 18 h
Procedure: as §1

Vibrio Parahaemolyticus = assay: MIC, two-fold broth microdilution; conditions: Vibrio parahaemolyticus, 18 h, read-out: MIC Vibrio Parahaemolyticus
Procedure: as §1

[1] = two-fold broth microdilution, MH broth, 37 °C, A595, mean of three independent experiments in duplicate

Structure (SMILES)	MIC E. coli (E. coli)	MIC S. dysenteria (S. dysenteria)	MIC S. aureus (S. aureus)	MIC B. subtilis (B. subtilis)	MIC P. aeruginosa (P. aeruginosa)	MIC P. mirabilis (P. mirabilis)	MIC C. albican (C. albican)	further results
CC(C)C[C@H](NC(=O)[C@H](CC(C)C)NC(=O)[C@H](CCCNC(=N)N)NC(=O)[C@H](CCCCN)NC(=O)[C@@H](N)Cc1ccccc1)C(=O)N[C@@H](CCCCN)C(=O)N[C@@H](CO)C(=O)N[C@H](C(=O)N[C@@H](CCCNC(=N)N)C(=O)N[C@@H](CCCNC(=N)N)C(=O)N[C@@H](C)C(=O)N[C@H](C(=O)N[C@@H](CCCCN)C(=O)N[C@@H](CCCCN)C(=O)N[C@@H](Cc1ccccc1)C(N)=O)C(C)C)C(C)C [Hc15] (H-FKRLLKSVRRAVKKF-NH2)	75 µg/mL (≈ 40 µM)	37.5 µg/mL (≈ 20 µM)						
CC(C)C[C@H](NC(=O)[C@H](CC(C)C)NC(=O)[C@@H](N)CCCNC(=N)N)C(=O)N[C@@H](CCCCN)C(=O)N[C@@H](CO)C(=O)N[C@H](C(=O)N[C@@H](CCCNC(=N)N)C(=O)N[C@@H](CCCNC(=N)N)C(=O)N[C@@H](C)C(=O)N[C@H](C(=O)N[C@@H](CCCCN)C(=O)N[C@@H](CCCCN)C(=O)N[C@@H](Cc1ccccc1)C(=O)N[C@@H](CCCNC(=N)N)C(=O)N[C@@H](CCCCN)C(N)=O)C(C)C)C(C)C [Hc11] (H-RLLKSVRRAVKKFRK-NH2)		150 µg/mL (≈ 79.6 µM)						
CC[C@H](C)[C@H](NC(=O)[C@H](CC(C)C)NC(=O)[C@H](CCCNC(=N)N)NC(=O)[C@@H]1CCCN1C(=O)[C@H](CCCCN)NC(=O)[C@H](CCCCN)NC(=O)[C@H](CCCNC(=N)N)NC(=O)[C@H](Cc1ccccc1)NC(=O)[C@H](CCCCN)NC(=O)[C@H](CCCCN)NC(=O)[C@@H](NC(=O)[C@H](C)NC(=O)[C@H](CCCNC(=N)N)NC(=O)[C@H](CCCNC(=N)N)NC(=O)[C@@H](NC(=O)[C@H](CO)NC(=O)[C@H](CCCCN)NC(=O)[C@H](CC(C)C)NC(=O)[C@H](CC(C)C)NC(=O)[C@H](CCCNC(=N)N)NC(=O)[C@H](CCCCN)NC(=O)[C@H](Cc1ccccc1)NC(=O)[C@H](Cc1ccccc1)NC(=O)[C@@H](N)CCCCN)C(C)C)C(C)C)C(=O)NCC(=O)N[C@@H](CC(C)C)C(=O)N[C@@H](CO)C(=O)N[C@H](C(=O)N[C@@H](CC(C)C)C(=O)N[C@@H](CC(C)C)C(=O)O)[C@@H](C)O [Hc-CATH, reference compound] (H-KFFKRLLKSVRRAVKKFRKKPRLIGLSTLL-OH)		0.59 µg/mL (≈ 0.163 µM)						MIC S. aureus (S. aureus; [1]): 4.69 µg/mL (≈ 1.29 µM); MIC B. subtilis (B. subtilis; [1]): 75 µg/mL (≈ 20.7 µM); MIC E. coli (E. coli; [1]): 2.34 µg/mL (≈ 0.645 µM); MIC P. aeruginosa (P. aeruginosa; [1]): 18.75 µg/mL (≈ 5.17 µM); MIC P. mirabilis (P. mirabilis; [1]): 4.69 µg/mL (≈ 1.29 µM); MIC C. albican (C. albican; [1]): 4.69 µg/mL (≈ 1.29 µM)
C[C@@H](O)[C@H]1C(=O)N2C(C(=O)O)=C(S[C@@H]3CN[C@H](C(=O)N(C)C)C3)[C@H](C)[C@H]12 [Meropenem, reference compound]								MIC (Vibrio Parahaemolyticus): 0.47 µg/mL (≈ 1.23 µM)
CC(C)C[C@H](NC(=O)[C@H](CCCNC(=N)N)NC(=O)[C@H](CCCCN)NC(=O)[C@H](Cc1ccccc1)NC(=O)[C@H](Cc1ccccc1)NC(=O)[C@@H](N)CCCCN)C(=O)N[C@@H](CC(C)C)C(=O)N[C@@H](CCCCN)C(=O)N[C@@H](CO)C(=O)N[C@H](C(=O)N[C@@H](CCCNC(=N)N)C(=O)N[C@@H](CCCNC(=N)N)C(=O)N[C@@H](C)C(=O)N[C@H](C(N)=O)C(C)C)C(C)C [Hc6] (H-KFFKRLLKSVRRAV-NH2)	75 µg/mL (≈ 42.9 µM)	18.75 µg/mL (≈ 10.7 µM)	75 µg/mL (≈ 42.9 µM)	150 µg/mL (≈ 85.9 µM)	150 µg/mL (≈ 85.9 µM)	37.5 µg/mL (≈ 21.5 µM)	75 µg/mL (≈ 42.9 µM)	
CC(C)C[C@H](NC(=O)[C@H](CCCNC(=N)N)NC(=O)[C@H](CCCCN)NC(=O)[C@H](Cc1ccccc1)NC(=O)[C@H](Cc1ccccc1)NC(=O)[C@@H](N)CCCCN)C(=O)N[C@@H](CC(C)C)C(=O)N[C@@H](CCCCN)C(=O)N[C@@H](CO)C(=O)N[C@H](C(=O)N[C@@H](CCCNC(=N)N)C(=O)N[C@@H](CCCNC(=N)N)C(=O)N[C@@H](C)C(=O)N[C@H](C(=O)N[C@@H](CCCCN)C(=O)N[C@@H](CCCCN)C(=O)N[C@@H](Cc1ccccc1)C(=O)N[C@@H](CCCNC(=N)N)C(N)=O)C(C)C)C(C)C [Hc2] (H-KFFKRLLKSVRRAVKKFR-NH2)	9.38 µg/mL (≈ 4.07 µM)	2.34 µg/mL (≈ 1.01 µM)	9.38 µg/mL (≈ 4.07 µM)	18.75 µg/mL (≈ 8.13 µM)	9.38 µg/mL (≈ 4.07 µM)	9.38 µg/mL (≈ 4.07 µM)	9.38 µg/mL (≈ 4.07 µM)	
CC(C)C[C@H](NC(=O)[C@H](CC(C)C)NC(=O)[C@H](CCCNC(=N)N)NC(=O)[C@H](CCCCN)NC(=O)[C@@H](N)Cc1ccccc1)C(=O)N[C@@H](CCCCN)C(=O)N[C@@H](CO)C(=O)N[C@H](C(=O)N[C@@H](CCCNC(=N)N)C(=O)N[C@@H](CCCNC(=N)N)C(=O)N[C@@H](C)C(=O)N[C@H](C(=O)N[C@@H](CCCCN)C(=O)N[C@@H](CCCCN)C(=O)N[C@@H](Cc1ccccc1)C(=O)N[C@@H](CCCNC(=N)N)C(=O)N[C@@H](CCCCN)C(N)=O)C(C)C)C(C)C [Hc9] (H-FKRLLKSVRRAVKKFRK-NH2)	150 µg/mL (≈ 69.5 µM)	18.75 µg/mL (≈ 8.68 µM)	9.38 µg/mL (≈ 4.34 µM)		150 µg/mL (≈ 69.5 µM)		150 µg/mL (≈ 69.5 µM)	
CC(C)C[C@H](NC(=O)[C@H](CCCNC(=N)N)NC(=O)[C@H](CCCCN)NC(=O)[C@H](Cc1ccccc1)NC(=O)[C@H](Cc1ccccc1)NC(=O)[C@@H](N)CCCCN)C(=O)N[C@@H](CC(C)C)C(=O)N[C@@H](CCCCN)C(=O)N[C@@H](CO)C(=O)N[C@H](C(=O)N[C@@H](CCCNC(=N)N)C(=O)N[C@@H](CCCNC(=N)N)C(=O)N[C@@H](C)C(=O)N[C@H](C(=O)N[C@@H](CCCCN)C(N)=O)C(C)C)C(C)C [Hc5] (H-KFFKRLLKSVRRAVK-NH2)	37.5 µg/mL (≈ 20 µM)	4.69 µg/mL (≈ 2.5 µM)	37.5 µg/mL (≈ 20 µM)	150 µg/mL (≈ 80 µM)	75 µg/mL (≈ 40 µM)	18.75 µg/mL (≈ 10 µM)	37.5 µg/mL (≈ 20 µM)	
CC(C)C[C@H](NC(=O)[C@H](CCCNC(=N)N)NC(=O)[C@H](CCCCN)NC(=O)[C@H](Cc1ccccc1)NC(=O)[C@H](Cc1ccccc1)NC(=O)[C@@H](N)CCCCN)C(=O)N[C@@H](CC(C)C)C(=O)N[C@@H](CCCCN)C(=O)N[C@@H](CO)C(=O)N[C@H](C(=O)N[C@@H](CCCNC(=N)N)C(=O)N[C@@H](CCCNC(=N)N)C(=O)N[C@@H](C)C(=O)N[C@H](C(=O)N[C@@H](CCCCN)C(=O)N[C@@H](CCCCN)C(N)=O)C(C)C)C(C)C [Hc4] (H-KFFKRLLKSVRRAVKK-NH2)	75 µg/mL (≈ 37.4 µM)	4.69 µg/mL (≈ 2.34 µM)	75 µg/mL (≈ 37.4 µM)		150 µg/mL (≈ 74.9 µM)	75 µg/mL (≈ 37.4 µM)	75 µg/mL (≈ 37.4 µM)	
CC(C)C[C@H](NC(=O)[C@H](CCCNC(=N)N)NC(=O)[C@H](CCCCN)NC(=O)[C@H](Cc1ccccc1)NC(=O)[C@H](Cc1ccccc1)NC(=O)[C@@H](N)CCCCN)C(=O)N[C@@H](CC(C)C)C(=O)N[C@@H](CCCCN)C(=O)N[C@@H](CO)C(=O)N[C@H](C(=O)N[C@@H](CCCNC(=N)N)C(=O)N[C@@H](CCCNC(=N)N)C(=O)N[C@@H](C)C(N)=O)C(C)C [Hc7] (H-KFFKRLLKSVRRA-NH2)		75 µg/mL (≈ 45.5 µM)			150 µg/mL (≈ 91 µM)			
